This is an account of results in patent US20060026702A1, “Phosphoinositide 3-kinase mediated inhibition of GPCRs” (DUKE UNIVERSITY, priority 2002, published 2006).

The subject of assay [1] is β2AR. In words: β2AR sequestration in HEK-293 cells by 125I-Cyanopindolol binding. In kind it is cell-based. The note with it: 1 μM isoproterenol; LY294002 100 μM 15 min before. As to the method: Determination of β2AR Sequestration in HEK-293 Cells by ^125I-Cyanopindolol (CYP) Binding—β2AR sequestration was performed as previously described. Briefly, HEK-293 cells were plated at a density of 2.5×10^6 cells/dish and transfected the following day with plasmids containing either the β2AR (150-250 ng), β2AR (250 ng) and HEAT domain (4 μg), PI3Kγ (4.0 μg) or ΔPI3Kγ (4.0 μg) cDNAs. Twelve hours after transfection cells were split into six well Falcon plates at a density of 750,000 cells/well. […] To determine the amount of internalized receptor, 100 μl aliquots of whole cells were added to 150 μl of binding buffer (75 mM Tris-HCl, 10 mM MgCl2, 5 mM EDTA (pH 7.5)). Total binding was determined in the presence of 175 pM ^125I-CYP alone, the number of internalized receptors were determined by using 175 pM ^125I-CYP plus 100 nM CGP12177, and non-specific binding was determined using 175 pM ^125I-CYP plus 1 μM propranolol. Sequestration was calculated as the ratio of (specific receptor binding of ^125I-CYP in the presence of CGP12177)/(specific receptor binding of ^125I-CYP in the absence of CGP12177).

Assay [2] addresses T1, PI3K (Homo sapiens, UniProt P48736, DEL30-30/Q459R).
T1 construct: expressed in transfected cells; host or cells: NIH-3T3
In words: βARK1 associated PI3K activity (lipid kinase assay) in transfected NIH-3T3 cells. In kind it is cell-based, Mouse. As to conditions: 10 μM isoproterenol, 2 min; cells co-transfected with βARK1 and HA-PI3Kγ.
Description: Cell Culture—Mouse NIH-3T3 and HEK293 cells were maintained in either Iscoves modified Dulbecco's medium or minimal essential medium (MEM) supplemented with 10% fetal bovine serum and 1:100 penicillin-streptomycin (10,000 U/ml) at 37° C. Cells were seeded at a density of ˜1-3×10^5 cells/35 mm^2 dish and at 70-80% confluence were transiently transfected using the transfection reagent FUGENE6 (ROCHE) or calcium phosphate precipitation. Cells were harvested 24 hours after transfection, re-plated in triplicate, allowed to grow overnight and serum starved for 2-4 hours before agonist stimulation.
Cytosolic and Membrane Fractionation—Cell monolayers were scraped in 1 ml of buffer containing 25 mM Tris-HCl (pH 7.5), 5 mM EDTA, 5 mM EGTA, 1 mM phenylmethylsulfonyl fluoride, 2 μg/ml each of leupeptin and aprotinin and disrupted further by using Dounce homogenizer. Intact cells and nuclei were removed by-centrifugation at 1,000×g for 5 min. The collected supernatant was further subject to a centrifugation at 38,000×g for 25 min. The pellet was resuspended in lysis buffer (1% Nonidet P-40, 10% glycerol, 137 mM NaCl, 20 mM Tris-Cl (ph 7.4), 1 mM phenylmethylsulfonyl fluoride, 20 mM NaF, 1 mM sodium pyrophosphate, 1 mM sodium orthovanadate and 2 μg/ml each of aprotinin and leupeptin) and used as membrane fraction and the supernatant was diluted in lysis buffer and used as the cytosolic fraction.
Lipid Kinase Assays—Cells were lysed in lysis buffer and 2 mg cytosolic extract was used for immunoprecipitation with either the C5/1 monoclonal antibody directed against βARK1, the anti-FLAG M2 monoclonal antibody (Sigma) or antibodies to p110γ, or p110β (Santa Cruz Biotechnology) and protein G-agarose. Sedimented beads were then washed once with 1 ml of lysis buffer, thrice with 1 ml of phosphate-buffered saline (1× phosphate-buffered saline, 1% NP-40 and 100 μM sodium orthovanadate), thrice with 1 ml of Tris/LiCl (100 mM Tris-HCl (pH 7.4), 5 mM LiCl and 100 μM sodium orthovanadate) and twice with TNE (10 mM Tris Cl (pH 7.4), 150 mM NaCl, 5 mM EDTA and 100 μM sodium orthovanadate). Samples were then resuspended in 50 ml of TNE and 10 μl of 100 mM MgCl2 was added to each sample. The substrate, phosphatidylinositol (PI, Avanti), was prepared by drying 50 μl of the 10 mg/ml stock (PI in chloroform) in an eppendorf tube with a stream of air and adding 250 μl of TE (10 mM Tris Cl (pH 7.4) and 1 mM EDTA). The PI was then suspended by sonication in an ice bath for 3 minutes. 10 p, of the PI solution and 11 μl of ATP solution (440 μM cold ATP and 1 μCi/μl of [γ-32P]ATP) were added to each sample. […] Autoradiography of dried plates was used to detect signals, and PIP was quantified by phosphorimaging. […] Values are expressed as fold increase/decrease relative to wild-type/control.

For assay [3], the system named is β2AR complex. In words: Recruitment of AP-2 adaptin and clathrin to the agonist-stimulated β2AR complex (immunoprecipitation, immunoblot). It counts as cell-based. As to conditions: saponin-permeabilized cells, isoproterenol 5 min; compared to similar concentration of Ptdlns (4,5) P2. As to the method: Immunoblotting and Detection—Immunoblotting and detection of PI3K, βARK1, HA-PI3Kγ, HA-ΔPI3Kγ, Myc-PI3Kα, FLAG-HEAT, PI3KΔHEAT-HA, FLAG-β2AR, HA-β2AR, β-adaptin and clathrin was carried out as previously described. Immunoprecipitating antibodies were added to 500 μg of cell lysate in lysis buffer followed by the addition of 35 μl of 1:1 Protein A- or G-agarose. Samples were rocked overnight at 4° C. then centrifuged at 12,000×g for 5 min. Immunoprecipitates were washed twice with lysis buffer, twice with 1×PBS and resuspended in 1×SDS-gel loading buffer. Proteins were resolved by SDS-polyacrylamide gel electrophoresis and blotted on to PVDF membrane (Bio-Rad). Blots were incubated with antibodies recognizing PI3K, Myc (Santa-Cruz), β-adaptin, clathrin heavy chain (BD Transduction Laboratories), HA (Roche Molecular Biochemicals) and FLAG (Sigma) at 1:2000 dilution and the βARK1 monoclonal antibody at 1:10,000 dilution. Blots were subsequently incubated with appropriate secondary antibody (1:2000 dilution) conjugated to horseradish peroxidase (Amersham Pharmacia Biotech) and detection was carried out using enhanced chemiluminescence. […]
The present inventors determined that βARK1-mediated localization of PI3K within the activated receptor complex is responsible for the generation of D-3 phosphatidylinositols necessary for the efficient recruitment of adaptin to the P2AR complex. […]

T1 sequence (P48736 with tags, fused parts or gaps DEL30-30/Q459R): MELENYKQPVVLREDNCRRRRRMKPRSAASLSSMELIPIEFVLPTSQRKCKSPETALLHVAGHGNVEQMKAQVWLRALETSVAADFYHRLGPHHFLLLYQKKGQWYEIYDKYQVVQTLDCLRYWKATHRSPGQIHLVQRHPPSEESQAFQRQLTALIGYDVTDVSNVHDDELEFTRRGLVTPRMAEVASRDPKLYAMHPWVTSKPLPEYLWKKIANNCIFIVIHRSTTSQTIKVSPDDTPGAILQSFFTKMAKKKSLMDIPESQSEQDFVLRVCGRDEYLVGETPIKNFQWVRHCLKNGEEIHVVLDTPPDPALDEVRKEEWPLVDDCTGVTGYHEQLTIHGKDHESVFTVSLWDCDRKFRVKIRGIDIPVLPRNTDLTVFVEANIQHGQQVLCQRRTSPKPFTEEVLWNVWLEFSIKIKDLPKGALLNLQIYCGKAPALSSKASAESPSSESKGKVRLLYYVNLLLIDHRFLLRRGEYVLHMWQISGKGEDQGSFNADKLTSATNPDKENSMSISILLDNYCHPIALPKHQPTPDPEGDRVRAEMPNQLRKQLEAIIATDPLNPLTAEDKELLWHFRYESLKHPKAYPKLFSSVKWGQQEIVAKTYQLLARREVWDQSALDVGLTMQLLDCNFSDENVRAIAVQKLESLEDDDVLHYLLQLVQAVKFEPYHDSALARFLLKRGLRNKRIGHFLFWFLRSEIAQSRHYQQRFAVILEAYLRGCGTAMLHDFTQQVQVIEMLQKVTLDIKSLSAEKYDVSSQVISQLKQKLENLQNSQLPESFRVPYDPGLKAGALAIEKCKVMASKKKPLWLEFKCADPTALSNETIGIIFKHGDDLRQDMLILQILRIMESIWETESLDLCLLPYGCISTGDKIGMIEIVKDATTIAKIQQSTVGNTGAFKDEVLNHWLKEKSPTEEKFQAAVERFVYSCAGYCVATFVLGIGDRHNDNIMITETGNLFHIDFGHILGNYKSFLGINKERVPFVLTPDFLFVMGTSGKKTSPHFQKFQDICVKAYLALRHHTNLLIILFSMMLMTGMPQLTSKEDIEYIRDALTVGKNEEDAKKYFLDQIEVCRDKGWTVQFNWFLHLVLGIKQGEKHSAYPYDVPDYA

For `O=c1cc(N2CCOCC2)oc2c(-c3ccccc3)cccc12` [LY294002, reference compound], in assay [1], the reduction in sequestration was 50%. Regarding `CC(C)NCC(O)c1ccc(O)c(O)c1` (stereo not shown) [isoproterenol, reference compound], in assay [2], the “βARK1 associated PI3K activity in the cytosolic fraction after agonist” value is “little change” and the “βARK1 associated PI3K activity in the membrane fraction after agonist” value is “significant increase”. As for “phosphatidylinositol 3,4,5-triphosphate [Ptdlns (3,4,5) P3, reference compound]”, the “efficiency of recruitment of adaptin to the receptor” value in assay [3] was “significantly enhanced”.
